Data published in patent publication US12077555B2, “STAT degraders and uses thereof” (Kymera Therapeutics, Inc., priority 2019, dated 2024).

Target: STAT3 (Homo sapiens, UniProt P40763)
Assay: Quantitation of STAT3 degradation in A549 cells by Western blot
Assay type: cell-based
Parameters: expressed in transfected cells; host or cells: A549
Conditions: 24 hours, tested up to 30 μM or 10 μM, read-out: A549 DC50
Procedure, shortened: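 A549 cells treated 24 h at 37° C with compound at 30, 10, 3, 1, 0.3 μM or DMSO; RIPA lysates analysed by SDS-PAGE/Western blot for total STAT3, β-actin as loading control, LI-COR fluorescence read-out. DC50 derived by sigmoidal fit of dose-dependent degradation.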

Chain of STAT3 (P40763 whole entry): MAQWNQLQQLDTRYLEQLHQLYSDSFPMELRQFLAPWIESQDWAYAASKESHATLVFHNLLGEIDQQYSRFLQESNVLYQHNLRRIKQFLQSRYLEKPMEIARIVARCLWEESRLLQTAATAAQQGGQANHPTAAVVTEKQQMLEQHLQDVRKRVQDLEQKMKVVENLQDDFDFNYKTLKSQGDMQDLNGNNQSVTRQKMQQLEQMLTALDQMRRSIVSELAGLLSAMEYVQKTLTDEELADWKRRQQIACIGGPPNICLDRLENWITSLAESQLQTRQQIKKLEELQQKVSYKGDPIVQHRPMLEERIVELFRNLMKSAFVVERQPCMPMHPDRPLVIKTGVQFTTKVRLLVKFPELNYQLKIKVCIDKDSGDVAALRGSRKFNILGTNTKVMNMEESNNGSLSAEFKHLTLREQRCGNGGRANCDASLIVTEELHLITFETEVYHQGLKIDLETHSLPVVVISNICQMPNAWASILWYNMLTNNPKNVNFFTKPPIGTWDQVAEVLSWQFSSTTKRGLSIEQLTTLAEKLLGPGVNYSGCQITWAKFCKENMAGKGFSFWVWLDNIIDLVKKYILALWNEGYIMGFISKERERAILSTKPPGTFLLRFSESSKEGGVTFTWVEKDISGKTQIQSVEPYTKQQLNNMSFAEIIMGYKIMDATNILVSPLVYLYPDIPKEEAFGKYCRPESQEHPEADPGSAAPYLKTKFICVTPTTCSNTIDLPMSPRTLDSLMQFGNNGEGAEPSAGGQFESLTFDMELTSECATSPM

Going from `C/C(=C\C(=O)N[C@H]1CCc2cccc3c2N(C1=O)[C@H](C(=O)N[C@@H](CCC(N)=O)[C@@H](C)OCc1ccc(CCCCC(=O)N[C@H](C(=O)N2C[C@H](O)C[C@H]2C(=O)NCc2ccc(-c4scnc4C)cc2)C(C)(C)C)cc1)C3)c1ccc(CP(=O)(O)O)cc1` [Compound I-80, diammonium [4-[(1E)-1-[[(2S,11S)-2-[[(3S,4R)-1-carbamoyl-4-[[4-(4-[[(2S)-1-[(2S,4R)-4-hydroxy-2-([[4-(4-methyl-1,3-thiazol-5-yl)phenyl]methyl]carbamoyl)pyrrolidin-1-yl]-3,3-dimethyl-1-oxobutan-2-yl]carbamoyl]butyl)phenyl]methoxy]pentan-3-yl]carbamoyl]-12-oxo-1-azatricyclo[6.4.1.0^[4,13]]trideca-4(13),5,7-trien-11-yl]carbamoyl]prop-1-en-2-yl]phenyl]methylphosphonate] to `C/C(=C\C(=O)N[C@H]1CCc2cccc3c2N(C1=O)[C@H](C(=O)N[C@@H](CCC(N)=O)[C@@H](C)OCc1ccc(CCOCC(=O)N[C@H](C(=O)N2C[C@H](O)C[C@H]2C(=O)NCc2ccc(-c4scnc4C)cc2)C(C)(C)C)cc1)C3)c1ccc(C(F)(F)P(=O)(OCOC(=O)C(C)(C)C)OCOC(=O)C(C)(C)C)cc1` [Compound I-13], the DC50 falls from greater than 30 µM to less than 30 µM.

Same assay, conditions: read-out: A549 DC50, 24 hours, tested up to 30 μM or 10 μM

`C/C(=C\C(=O)N[C@H]1CCc2cccc3c2N(C1=O)[C@H](C(=O)N[C@@H](CCC(N)=O)[C@@H](C)OCc1ccc(CCCOCCCc2cccc4c2n(C)c(=O)n4C2CCC(=O)NC2=O)cc1)C3)c1ccc(C(F)(F)P(=O)(OCOC(=O)C(C)(C)C)OCOC(=O)C(C)(C)C)cc1` (stereo partly drawn) [Compound I-10, [([4-[(1E)-1-[[(2S,11S)-2-[[(3S,4R)-1-carbamoyl-4-[[4-(3-[3-[1-(2,6-dioxopiperidin-3-yl)-3-methyl-2-oxo-1,3-benzodiazol-4-yl]propoxy]propyl)phenyl]methoxy]pentan-3-yl]carbamoyl]-12-oxo-1-azatricyclo[6.4.1.0^[4,13]]trideca-4(13),5,7-trien-11-yl]carbamoyl]prop-1-en-2-yl]phenyl]difluoromethyl([(2,2-dimethylpropanoyl)oxy]methoxy)phosphoryl)oxy]methyl 2,2-dimethylpropanoate] and `C/C(=C\C(=O)N[C@H]1CCc2cccc3c2N(C1=O)[C@H](C(=O)NC(CCC(N)=O)[C@@H](C)OCc1ccc(CCCOCCCCCCOCCCc2cccc4c2n(C)c(=O)n4C2CCC(=O)NC2=O)cc1)C3)c1ccc(C(F)(F)P(=O)(OCOC(=O)C(C)(C)C)OCOC(=O)C(C)(C)C)cc1` (stereo partly shown) [Compound I-44] cannot be ordered by DC50: greater than 30 µM for the first, greater than 30 µM for the second.

`C/C(=C\C(=O)N[C@H]1CCc2cccc3c2N(C1=O)[C@H](C(=O)N[C@@H](CCC(N)=O)[C@@H](C)OCc1ccc(CCCCOc2cc(-c4scnc4C)ccc2CNC(=O)[C@@H]2C[C@@H](O)CN2C(=O)[C@@H](NC(=O)C2(F)CC2)C(C)(C)C)cc1)C3)c1ccc(C(F)(F)P(=O)(OCOC(=O)C(C)(C)C)OCOC(=O)C(C)(C)C)cc1` [Compound I-26] and `C/C(=C\C(=O)N[C@H]1CCc2cccc3c2N(C1=O)[C@H](C(=O)N[C@@H](CCC(N)=O)[C@@H](C)OCc1ccc(CCCCOCC(=O)N[C@H](C(=O)N2C[C@@H](O)C[C@H]2C(=O)NCc2ccc(-c4scnc4C)cc2)C(C)(C)C)cc1)C3)c1ccc(C(F)(F)P(=O)(OCOC(=O)C(C)(C)C)OCOC(=O)C(C)(C)C)cc1` [Compound I-21] cannot be ordered by DC50: greater than 10 µM for the first, greater than 30 µM for the second.

`Cn1c(=O)n(C2CCC(=O)NC2=O)c2ccc(CCCCCC(=O)N3CC[C@H]4CC[C@@H](C(=O)N[C@@H](CCC(N)=O)C(=O)NC(c5ccccc5)c5ccccc5)N4C(=O)[C@@H](NC(=O)c4cc5cc(C(=O)P(=O)(O)O)ccc5[nH]4)C3)cc21` (stereo partly drawn) [Compound I-107, 2-[[(5S,8S,10aR)-8-[[(1S)-3-carbamoyl-1-(diphenylmethylcarbamoyl)propyl]carbamoyl]-3-[6-[1-(2,6-dioxopiperidin-3-yl)-3-methyl-2-oxo-1,3-benzodiazol-5-yl]hexanoyl]-6-oxo-octahydropyrrolo[1,2-a][1,5]diazocin-5-yl]carbamoyl]-1H-indole-5-carbonylphosphonic acid] showed a DC50 of less than 30 µM.
